{
  "source": "paper PMC9486805",
  "about": "“Identification of a Phage Display-Derived Peptide Interacting with the N-Terminal Region of Factor VII Activating Protease (FSAP) Enables Characterization of Zymogen Activation” (ACS Chemical Biology, 2022)",
  "key": {"[1]": {"target": "T1, pro-FSAP purified from human plasma (Homo sapiens, UniProt Q14520)", "T1 construct": "Pro-FSAP was isolated from human plasma as described before; from tissue; host or cells: human plasma", "T1 sequence (Q14520 24-560)": "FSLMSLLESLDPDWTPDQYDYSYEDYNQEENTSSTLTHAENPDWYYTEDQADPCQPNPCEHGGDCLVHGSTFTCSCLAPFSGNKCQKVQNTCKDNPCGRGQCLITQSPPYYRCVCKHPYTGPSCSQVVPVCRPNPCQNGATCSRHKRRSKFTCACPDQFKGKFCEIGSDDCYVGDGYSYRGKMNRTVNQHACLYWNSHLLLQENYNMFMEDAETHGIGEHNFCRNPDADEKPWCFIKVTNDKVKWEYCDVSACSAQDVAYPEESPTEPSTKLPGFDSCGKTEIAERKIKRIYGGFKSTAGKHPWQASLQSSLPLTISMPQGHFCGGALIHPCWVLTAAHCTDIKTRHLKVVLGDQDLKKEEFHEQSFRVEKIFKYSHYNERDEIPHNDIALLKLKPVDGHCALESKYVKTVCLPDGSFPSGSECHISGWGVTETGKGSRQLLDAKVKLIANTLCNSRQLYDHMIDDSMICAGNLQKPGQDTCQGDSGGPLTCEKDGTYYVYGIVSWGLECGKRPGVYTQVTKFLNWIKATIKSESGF", "test": "Pro-FSAP activation assay, purified pro-FSAP, chromogenic substrate S-2288", "type": "biochemical", "protocol": "Figure 1 Isolation of pro-FSAP binding peptides and their activity: (A) strategy to isolate high-affinity phages from the NNKC9 and NNK11 libraries that bind to pro-FSAP. To select for strong binders, an excess of free pro-FSAP protein was used for competitive elution of low-affinity binders. High-affinity binders retained on the beads were analyzed further. The sequences of major positive clones identified through an ELISA-based binding assay from the NNKC9 and NNK11 libraries are shown. (B) NNK11/189 and scrambled controls (0–50 μM) and histones (0–50 μg/mL) were added to purified pro-FSAP (1.0 μg/mL) and the turnover of the chromogenic substrate S-2288 (200 μM) was measured. (C) NNKC9/41 was compared to a peptide that was synthetically monocyclized (Cys–Cys cyclic), a peptide with Ser residues instead of Cys at both ends (Ser–Ser linear), a peptide with Ser residues at the end cyclized head to tail (Ser–Ser cyclic), and a scrambled peptide in a pro-FSAP activation assay. (D) Hirudin plasma (1:12 dilution) was incubated with histones (25 μg/mL), NNKC9/41, or Ser–Ser linear control (each, 25 μM), the fluorogenic substrate turnover (Ac–Ala–Lys–Nle–Arg–AMC) was monitored in duplicate wells, and results from a single well are shown. In panels (B) and (C), results are shown as mean + range (duplicate wells). Results were replicated with five different batches of NNKC9/41 (panels (B) and (C)).\nPro-FSAP was isolated from human plasma as described before.[14] The content of the zymogen form varied from 50% to 90% due to autoactivation during the purification process. Histones, isolated from the calf thymus, were obtained from Sigma-Aldrich (Oslo, Norway). FSAP activity assays were performed as described previously.[51] In brief, microtiter wells were blocked with TBS (25 mM Tris–HCl, pH 7.5, and 150 mM NaCl) containing 3% (w/v) BSA for 1 h and washed with TBS-T. The standard assay consisted of TBS-T with 0.3% (w/v) BSA and CaCl2 (2 mM) 1 μg/mL (15 nM) plasma purified pro-FSAP and 250 μM chromogenic substrate S-2288 (D-Ile-L-Pro-L-Arg-p-nitroaniline dihydrochloride) (Haemochrome Diagnostica, Essen, Germany) and was followed at 37 °C at 405 nm in a microplate reader Synergy HI plate reader (BioTek Instruments, Winooski). In some experiments, a fluorescent substrate of FSAP[35] was used."}, "[2]": {"target": "T2, pro-FSAP in human plasma (Homo sapiens, UniProt Q14520)", "T2 construct": "from tissue; host or cells: human hirudin or citrate plasma from healthy donors, diluted 1:12", "T2 sequence (Q14520 24-560)": "as above", "test": "Activation of endogenous pro-FSAP in plasma, fluorogenic substrate turnover", "type": "biochemical", "protocol": "Human citrate plasma (0.38% w/v) or hirudin plasma (25 μg/mL Lepirudin) was obtained from five healthy donors. Plasma was diluted at 1:12 and mixed with various test substances that potentially activate or inhibit pro-FSAP. Ac–Ala–Lys–Nle–Arg–AMC (amino–methyl–coumarin) was used as a sensitive and specific substrate for FSAP.[35] Hydrolysis of the fluorogenic substrates was measured using a Synergy HI plate reader with excitation at 320 nm and emission at 460 nm at 37 °C for 60 min. The maximal velocity was calculated from the linear part of the progress curve. In limited experiments, the second-generation fluorogenic FSAP substrate (Ac–Pro–DTyr–Lys–Arg–AMC)[34] was used. Pro-uPA activation, formation of FSAP−α2-antiplasmin, and western blotting with anti-FSAP antibodies were also used to monitor pro-FSAP activation."}, "[3]": {"system": "purified pro-FSAP", "conditions": "heparin ref 13, 14; nucleic acids ref 15, 16; dextran sulfate ref 13; cited from earlier work", "from_the_text": "This leads to cleavag ..."}, "[4]": {"system": "EGF3 domain of FSAP", "conditions": "cited from earlier work", "from_the_text": "To identify the domain of FSAP responsible for binding to NNKC9/41, we expressed various domain deletion mutants of pro-FSAP as His-tagged proteins in E. coli as described before.[36] The N-terminus of pro- FSAP (heavy chain) consists of the intrinsically disordered N-terminal region (NTR), three EGF domains, and a kringle domain, whereas the C-terminal-light chain contains the serine protease domain (SPD) (Figure 2C). […] The recombinant proteins (Figure 2D) were captured on polyclonal FSAP an ..."}, "[5]": {"target": "T2, pro-FSAP in human plasma", "conditions": "NNKC9/41; cited from earlier work", "from_the_text": "The contact pathway of blood coagulation is activated by negatively charged surfaces,[44] and we also tested whether it was involved in any way in the pro-FSAP activation process. […] The kallikrein inhibitor PKS1-527 had no effect,[43] but aprotinin, a general serine protease inhibitor, blocked pro-FSAP activation/activ ..."}, "[6]": {"conditions": "hirudin plasma, Ac–Pro–DTyr–Lys–Arg–AMC (Fig S3)"}},
  "note": "Bridge positions count the residues as written; N and C are the ends. Ends that are not written are not given here.",
  "data": [
    {"compound": "IDCLMQNAGSA [NNK11/189]", "values": [
      {"measurement": "effect on pro-FSAP activation", "setting": "[1]; purified pro-FSAP 1.0 μg/mL, peptides 0–50 μM, histones 0–50 μg/mL, S-2288 (200 μM in legend b10, 250 μM in method b60), 37 °C, 405 nm, duplicate wells", "result": "did not have any effect on pro-FSAP activation"}
    ]},
    {"compound": "aprotinin [reference compound]", "values": [
      {"measurement": "effect of inhibitor on pro-FSAP activation by the peptide", "setting": "[2]; hirudin plasma 1:12, NNKC9/41 25 μM, CTI 80 μg/mL, aprotinin 100 μg/mL, MA-570 20 μg/mL, read-outs of Fig 4D–F (MA-FSAP-570 only Fig 4D,E)", "result": "blocked pro-FSAP activation/activity"}
    ]},
    {"compound": "CRGAMWMYKRC (not fully specified (N-terminus); also: oxidation gives mixture of Cys1-Cys11 monocycle and disulfide-linked antiparallel dimers) [NNKC9/41]", "values": [
      {"measurement": "EC50", "setting": "[1]; purified pro-FSAP activation, S-2288, linear synthetic peptide stored under oxidative conditions, five batches", "result": "8 to 15", "unit": "µM"}
    ]},
    {"compound": "dextran sulfate", "values": [
      {"measurement": "activation of purified pro-FSAP", "setting": "[3]", "result": "activate purified pro-FSAP"}
    ]},
    {"compound": "CRGAMWMYKRC (disulfide 1-11 (inferred)) [cyclic dimer, antiparallel cyclic dimer of NNKC9/41 through terminal Cys groups]", "values": [
      {"measurement": "presence in HPLC fractions active in pro-FSAP activation", "setting": "[2]; RP-HPLC fractions of NNKC9/41 tested in hirudin plasma, LC–MS (Fig S1)", "result": "found in all of the active fractions"},
      {"measurement": "activity at higher concentrations", "setting": "[2]; [6]", "result": "pronounced decrease in activity at higher concentrations"},
      {"measurement": "maximal activity vs NNKC9/41", "setting": "[2]; [6]", "result": "slightly lower"}
    ]},
    {"compound": "heparin", "values": [
      {"measurement": "activation of purified pro-FSAP", "setting": "[3]", "result": "activate purified pro-FSAP"},
      {"measurement": "binding to the EGF3 domain", "setting": "[4]", "result": "binds to the EGF3 domain"}
    ]},
    {"compound": "Cl.NCC1CCC(C(=O)N[C@@H](Cc2ccccc2)C(=O)Nc2ccc(CC(=O)O)cc2)CC1", "note": "(stereo partly shown) [PKS1-527]", "values": [
      {"measurement": "effect of kallikrein inhibitor", "setting": "[5]", "result": "had no effect"}
    ]}
  ]
}
